Test [1] addresses T1, PFL (Pseudomonas fluorescens, UniProt Q3KJ04).
T1 construct: gene Pfl01_0508; full length, 132 residues, two homologous domains; pET101/D-TOPO with native stop codon, E. coli BL21 Star (DE3); Alexa Fluor 488 labelled for the array
T1 sequence (Q3KJ04 2-133): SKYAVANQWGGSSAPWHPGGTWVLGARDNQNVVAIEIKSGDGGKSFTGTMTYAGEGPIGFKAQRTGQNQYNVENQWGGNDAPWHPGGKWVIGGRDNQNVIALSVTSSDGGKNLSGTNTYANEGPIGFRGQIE
The test can be described thus: CFG printed glycan microarray v5.[…], fluorescence. Conditions: 10 μg/ml Alexa488-PFL; glycan immobilised on array. The class given is binding.

In test [2] the target is T1, PFL. The test is described as follows: CFG printed glycan microarray v5.[…], fluorescence. The class given is binding. Conditions: 10 μg/ml Alexa488-PFL; glycan immobilised on array. This is another data set of the same source.

On to M6 glycan [compound 216], for which, in test [1], the RFU worked out at 43471 RFU.
Regarding M7 glycan [compound 211], the “binding potency relative to M6 glycan (216)” value in test [2] was ~ 53%.
The substance M8 glycan [compound 212] had an RFU in test [1] of 40759 RFU.
In test [1], “fucosylated counterpart of pentasaccharide core of N-glycan (50) [compound 485]” gave an RFU of 746 RFU.

For the origin of these results see article PMC3447791, “High Mannose-Binding Antiviral Lectin PFL from Pseudomonas fluorescens Pf0-1 Promotes Cell Death of Gastric Cancer Cell MKN28 via Interaction with α2-Integrin” (PLoS ONE, 2012).
